Read-outs that look alike come from different tables or passages of the source. Numbered stars: 1 amine (or outer) side, 2 acyl side, 3 side chain; on linkers, the order of the positions; unused ones are H or OH. Bridge positions count the residues as written; N and C are the ends. Square brackets hold non-standard residues; d marks the D form. Peptide text beside a SMILES is read from it. Trp(βS-Me,7-OMe) = COc1cccc2c([C@H](C)[C@H](N)C(=O)O)c[nH]c12; Morpholine(3S-CO,6,6-Me2) = CC1(C)CN[C@H](C(=O)O)CO1; Trp(7-CN) = N#Cc1cccc2c(C[C@H](N)C(=O)O)c[nH]c12; Trp(7-Cl) = N[C@@H](Cc1c[nH]c2c(Cl)cccc12)C(=O)O; Phe(4-CONH2) = NC(=O)c1ccc(C[C@H](N)C(=O)O)cc1; Phe(4-COOH) = N[C@@H](Cc1ccc(C(=O)O)cc1)C(=O)O; 4Pal(3S-Me) = C[C@@H](c1ccncc1)[C@H](N)C(=O)O; Trp(7-aza) = N[C@@H](Cc1c[nH]c2ncccc12)C(=O)O; Phe(4-CH2NH2) = NCc1ccc(C[C@H](N)C(=O)O)cc1; X23 = N[C@@H]1CCN([*:1])[C@H](C(=O)[*:2])C1; Pip(5R-OH) = O=C(O)[C@@H]1CC[C@@H](O)CN1; X1 = O=C([C@@H]1CC[C@H](N[*:1])C1)[*:2]; Pip(4-aza) = O=C(O)[C@@H]1CNCCN1; 4Pal = N[C@@H](Cc1ccncc1)C(=O)O; NMeE = CN[C@@H](CCC(=O)O)C(=O)O; dHyp = O=C(O)[C@H]1C[C@H](O)CN1; Ahp(2) = CCCCC[C@H](N)C(=O)O; NEtAla = CCN[C@@H](C)C(=O)O; αMeS = C[C@](N)(CO)C(=O)O; Nle = CCCC[C@H](N)C(=O)O; Sar = CNCC(=O)O
Molecular target: T1, human soluble TNFR1 (sTNFR1) (Homo sapiens, UniProt P19438)
T1 construct: made in house; host or cells: Sf21 (baculovirus)
T1 sequence (P19438 with tags, fused parts or gaps): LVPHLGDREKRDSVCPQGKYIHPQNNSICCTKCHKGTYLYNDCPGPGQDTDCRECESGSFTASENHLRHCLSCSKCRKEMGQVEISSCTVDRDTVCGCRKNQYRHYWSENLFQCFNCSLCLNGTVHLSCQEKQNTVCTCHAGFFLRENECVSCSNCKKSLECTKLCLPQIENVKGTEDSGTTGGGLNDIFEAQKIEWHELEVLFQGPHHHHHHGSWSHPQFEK
Test: Human sTNFR1-peptide displacement assay (LanthaScreen Eu TR-FRET binding assay)
Procedure, shortened: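 Readout is the 665/615 nm TR-FRET ratio (Eu anti-His donor, streptavidin-Alexa647 acceptor), normalized to DMSO and saturating displacer, fit by Morrison-based five-parameter logistic for Kd^app. His-tagged sTNFR1 (1-211) prebound to 100 nM biotinylated peptide SEQ ID NO.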

[1] = displacement of biotinylated peptide SEQ ID NO. 1 from sTNFR1, 20 point titration, 5-parameter fit based on Morrison equation (tight binding), read-out: TR-FRET Kd^app

SMILES: CCCC[C@@H]1NC(=O)CSC[C@@H](C(N)=O)NC(=O)[C@H]([C@@H](C)c2c[nH]c3c(OC)cccc23)NC(=O)CN(C)C(=O)[C@H](Cc2ccc(O)cc2)NC(=O)[C@H](Cc2ccc(C(=O)O)cc2)NC(=O)[C@](C)(CO)NC(=O)[C@H](Cc2c[nH]c3c(Cl)cccc23)NC(=O)[C@H](Cc2ccncc2)NC(=O)[C@H](CC(N)=O)NC(=O)[C@H](CCC(=O)O)N(C)C(=O)[C@H](Cc2c[nH]c3ncccc23)NC(=O)[C@H](C)N(CC)C(=O)[C@H](Cc2ccncc2)NC1=O [SEQ ID NO. 38] ({CH2CO}-[Nle][4Pal][NEtAla][Trp(7-aza)][NMeE]N[4Pal][Trp(7-Cl)][αMeS][Phe(4-COOH)]Y[Sar][Trp(βS-Me,7-OMe)]C-NH2; thioether N-14)
- Kd: 0.7 nM

SMILES: CCCC[C@@H]1NC(=O)[C@@H]2CC[C@@H](C2)NC(=O)[C@H]([C@@H](C)c2c[nH]c3c(OC)cccc23)NC(=O)CN(C)C(=O)[C@H](Cc2ccc(CN)cc2)NC(=O)[C@H](Cc2ccc(C(=O)O)cc2)NC(=O)[C@](C)(CO)NC(=O)[C@H](Cc2c[nH]c3c(Cl)cccc23)NC(=O)[C@H](Cc2ccncc2)NC(=O)[C@H](CC(N)=O)NC(=O)[C@H](CCC(=O)O)N(C)C(=O)[C@H](Cc2c[nH]c3ccccc23)NC(=O)[C@@H]2CNCCN2C(=O)[C@H](Cc2ccncc2)NC1=O [SEQ ID NO. 269] (cyclo([4Pal][Trp(7-Cl)][αMeS][Phe(4-COOH)][Phe(4-CH2NH2)][Sar][Trp(βS-Me,7-OMe)][X1][Nle][4Pal][Pip(4-aza)]W[NMeE]N))
- Kd: 0.08 nM

SMILES: CCCC[C@@H]1NC(=O)[C@@H]2CC[C@@H](C2)NC(=O)[C@H]([C@@H](C)c2c[nH]c3c(OC)cccc23)NC(=O)CN(C)C(=O)[C@H](Cc2ccc(C(=O)O)cc2)NC(=O)[C@H](Cc2ccc(C(N)=O)cc2)NC(=O)[C@](C)(CO)NC(=O)[C@H](Cc2c[nH]c3c(Cl)cccc23)NC(=O)[C@H](Cc2ccncc2)NC(=O)[C@H](CC(N)=O)NC(=O)[C@H]2C[C@H](O)CN2C(=O)[C@H](Cc2c[nH]c3ccccc23)NC(=O)[C@@H]2CC[C@@H](O)CN2C(=O)[C@H](Cc2ccncc2)NC1=O [SEQ ID NO. 53] (cyclo([4Pal][Trp(7-Cl)][αMeS][Phe(4-CONH2)][Phe(4-COOH)][Sar][Trp(βS-Me,7-OMe)][X1][Nle][4Pal][Pip(5R-OH)]W[dHyp]N))
- Kd [1]: 0.09 nM

SMILES: CCCC[C@@H]1NC(=O)CSC[C@@H](C(N)=O)NC(=O)[C@H]([C@@H](C)c2c[nH]c3c(OC)cccc23)NC(=O)CN(C)C(=O)[C@H](Cc2ccc(O)cc2)NC(=O)[C@H](Cc2ccc(C(=O)O)cc2)NC(=O)[C@](C)(CO)NC(=O)[C@H](Cc2c[nH]c3c(Cl)cccc23)NC(=O)[C@H](Cc2ccncc2)NC(=O)[C@H](CC(N)=O)NC(=O)[C@H](C)N(CC)C(=O)[C@H](Cc2c[nH]c3ccccc23)NC(=O)[C@@H]2COC(C)(C)CN2C(=O)[C@H](Cc2ccncc2)NC1=O [SEQ ID NO. 183] ({CH2CO}-[Nle][4Pal][Morpholine(3S-CO,6,6-Me2)]W[NEtAla]N[4Pal][Trp(7-Cl)][αMeS][Phe(4-COOH)]Y[Sar][Trp(βS-Me,7-OMe)]C-NH2; thioether N-14)
- Kd [1]: 0.17 nM
- IC50 (displacement of biotinylated peptide SEQ ID NO. 1 from sTNFR1, weaker binders, 10 pts titration, 4-parameter logistic model, read-out: TR-FRET, IC50): 0.5 nM

SMILES: CCCCC[C@@H]1NC(=O)[C@@H]2CC[C@@H](C2)NC(=O)[C@H]([C@@H](C)c2c[nH]c3c(OC)cccc23)NC(=O)CN(C)C(=O)[C@H](Cc2ccc(C(N)=O)cc2)NC(=O)[C@H](Cc2ccc(C(N)=O)cc2)NC(=O)[C@](C)(CO)NC(=O)[C@H](Cc2c[nH]c3c(C#N)cccc23)NC(=O)[C@H](Cc2ccc(C(=O)O)cc2)NC(=O)[C@H](CC(N)=O)NC(=O)[C@H]2C[C@H](O)CN2C(=O)[C@H](Cc2c[nH]c3ccccc23)NC(=O)[C@H](CCC(N)=O)NC(=O)[C@H]([C@@H](C)c2ccncc2)NC1=O [SEQ ID NO. 70] (cyclo([Ahp(2)][4Pal(3S-Me)]QW[dHyp]N[Phe(4-COOH)][Trp(7-CN)][αMeS][Phe(4-CONH2)][Phe(4-CONH2)][Sar][Trp(βS-Me,7-OMe)][X1]))
- Kd: 0.12 nM

SMILES: CCCC[C@@H]1NC(=O)CSC[C@@H](C(N)=O)NC(=O)[C@H]([C@@H](C)c2c[nH]c3c(OC)cccc23)NC(=O)CN(C)C(=O)[C@H](Cc2ccc(O)cc2)NC(=O)[C@H](Cc2ccc(C(=O)O)cc2)NC(=O)[C@](C)(CO)NC(=O)[C@H](Cc2c[nH]c3c(Cl)cccc23)NC(=O)[C@H](Cc2ccncc2)NC(=O)[C@H](CC(N)=O)NC(=O)[C@H](CCC(=O)O)N(C)C(=O)[C@H](Cc2c[nH]c3ccccc23)NC(=O)[C@@H]2C[C@H](N)CCN2C(=O)[C@H](Cc2ccncc2)NC1=O [SEQ ID NO. 271] ({CH2CO}-[Nle][4Pal][X23]W[NMeE]N[4Pal][Trp(7-Cl)][αMeS][Phe(4-COOH)]Y[Sar][Trp(βS-Me,7-OMe)]C-NH2; thioether N-14)
- Kd: 0.95 nM
